This note sets out measurements from patent US12583855B2, “RET selective inhibitor, preparation method therefor and use thereof” (SHOUYAO HOLDINGS (BEIJING) CO., LTD., priority 2019, dated 2026).

One experiment has as its target T1, RET^WT (Homo sapiens, UniProt P07949).
T1 construct: GST-RET^WT (658-1114 aa, final concentration of 0.5 nM)
T1 sequence (P07949 658-1114): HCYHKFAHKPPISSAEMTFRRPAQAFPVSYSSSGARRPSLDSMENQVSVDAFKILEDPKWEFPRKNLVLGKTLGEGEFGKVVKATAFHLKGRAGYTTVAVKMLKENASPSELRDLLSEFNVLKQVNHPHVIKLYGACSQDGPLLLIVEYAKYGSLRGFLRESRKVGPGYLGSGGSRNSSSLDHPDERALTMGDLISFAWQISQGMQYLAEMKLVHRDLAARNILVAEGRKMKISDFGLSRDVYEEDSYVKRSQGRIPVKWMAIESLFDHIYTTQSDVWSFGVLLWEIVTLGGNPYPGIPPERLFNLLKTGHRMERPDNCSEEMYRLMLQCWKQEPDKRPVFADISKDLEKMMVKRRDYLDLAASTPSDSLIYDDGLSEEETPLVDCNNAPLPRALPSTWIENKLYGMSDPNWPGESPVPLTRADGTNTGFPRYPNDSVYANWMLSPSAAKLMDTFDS
The experiment is described as follows: In vitro enzymatic activity assay on RET^WT (HTRF). The format is biochemical. To be noted: GST-RET^WT (658-1114 aa) 0.5 nM, ATP 25 μM. How it is done:
1. In Vitro Enzymatic Activity Assay for Compounds on RET^WT
The compounds were diluted 5-fold with 100% DMSO starting from 0.2 mM (7 concentrations in total), and 2 μL of each concentration was added to 48 μL of reaction buffer (50 mM HEPES pH7.5, 0.1 mM Na3VO4, 5 mM MgCl2. 1 mM DTT, 0.001% Tween 20, and 100 μg/ml BSA) for dilution and mixing.
The 384-well plate was placed in an incubator and reacted at 23° C. for 2 h before the reaction was stopped by the addition of 5 μL of TK Antibody (purchased from Cisbio) and 5 μL of Streptavidin-XL665 (purchased from Cisbio). […] The enzymatic activity signal of RET^WT was measured at 7 concentrations for each compound and the data were calculated using GraphPad Prism software to obtain the IC50 value for the compound.
A general note: TR-FRET usually uses a lanthanide donor and a delayed reading to cut background.

The target in a further experiment is VEGFR2 (Homo sapiens, UniProt P35968). The experiment is described as follows: In vitro enzymatic activity assay on VEGFR2 (HTRF). The format is biochemical. To be noted: GST-VEGFR2 0.1 nM, ATP 2.5 μM. How it is done: 3. n Vitro Enzymatic Activity Assay for Compounds on VEGFR2
VEGFR2, sequence (P35968 20-1356): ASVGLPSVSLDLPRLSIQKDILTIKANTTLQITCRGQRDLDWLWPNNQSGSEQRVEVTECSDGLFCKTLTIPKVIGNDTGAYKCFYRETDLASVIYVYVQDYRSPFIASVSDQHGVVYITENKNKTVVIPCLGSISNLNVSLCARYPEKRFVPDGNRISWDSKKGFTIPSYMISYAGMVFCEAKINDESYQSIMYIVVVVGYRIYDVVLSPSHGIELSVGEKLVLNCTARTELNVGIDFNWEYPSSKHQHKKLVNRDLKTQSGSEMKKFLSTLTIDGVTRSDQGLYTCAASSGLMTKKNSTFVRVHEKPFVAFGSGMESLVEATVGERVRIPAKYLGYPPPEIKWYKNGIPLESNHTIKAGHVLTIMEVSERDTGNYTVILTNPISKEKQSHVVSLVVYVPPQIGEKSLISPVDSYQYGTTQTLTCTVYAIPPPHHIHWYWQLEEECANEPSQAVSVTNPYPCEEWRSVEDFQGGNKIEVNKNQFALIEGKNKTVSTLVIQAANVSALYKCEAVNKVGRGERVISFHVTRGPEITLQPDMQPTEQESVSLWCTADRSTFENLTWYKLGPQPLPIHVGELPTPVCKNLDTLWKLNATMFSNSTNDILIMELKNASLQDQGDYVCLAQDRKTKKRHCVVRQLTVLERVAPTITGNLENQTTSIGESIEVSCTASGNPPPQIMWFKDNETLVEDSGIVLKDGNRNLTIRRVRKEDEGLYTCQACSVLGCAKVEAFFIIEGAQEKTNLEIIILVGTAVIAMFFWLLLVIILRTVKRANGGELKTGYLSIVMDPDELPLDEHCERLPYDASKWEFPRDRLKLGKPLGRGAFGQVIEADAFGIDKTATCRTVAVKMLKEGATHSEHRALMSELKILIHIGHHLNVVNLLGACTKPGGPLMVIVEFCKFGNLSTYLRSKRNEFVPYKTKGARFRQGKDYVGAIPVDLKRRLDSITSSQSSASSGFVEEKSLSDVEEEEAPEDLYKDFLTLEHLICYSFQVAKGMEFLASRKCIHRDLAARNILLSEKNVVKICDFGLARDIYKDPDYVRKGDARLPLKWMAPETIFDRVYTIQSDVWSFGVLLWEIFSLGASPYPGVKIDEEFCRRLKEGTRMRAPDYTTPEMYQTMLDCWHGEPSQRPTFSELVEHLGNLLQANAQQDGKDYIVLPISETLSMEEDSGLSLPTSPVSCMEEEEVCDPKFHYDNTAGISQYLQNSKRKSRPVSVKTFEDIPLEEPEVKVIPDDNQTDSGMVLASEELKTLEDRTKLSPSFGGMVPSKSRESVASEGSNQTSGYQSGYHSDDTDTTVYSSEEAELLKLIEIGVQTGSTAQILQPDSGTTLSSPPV
The compounds were diluted 5-fold with 100% DMSO starting from 1 mM (7 concentrations in total), and 2 μL of each concentration was added to 48 μL of reaction buffer (50 mM HEPES pH 7.5, 0.1 mM Na3VO4, 5 mM MgCl2, 1 mM MnCl2, 1 mM DTT, 0.001% Tween 20, and 100 μg/ml BSA) for dilution and mixing. 2.5 μL of compounds and 5 μL of GST-VEGFR2 (final concentration of 0.1 nM) were added to a 384-well plate (OptiPlate-384, purchased from PerkinElmer), the mixture was mixed by centrifugation, and 2.5 μL of ATP (final concentration of 2.5 μM) and TK Peptide Substrate mixture (final concentration of 1 μM, purchased from Cisbio) were added to start the reaction, with a total reaction volume of 10 μL. The 384-well plate was placed in an incubator and reacted at 23° C. for 1.5 h before the reaction was stopped by the addition of 5 μL of TK Antibody (purchased from Cisbio) and 5 μL of Streptavidin-XL665 (purchased from Cisbio). After further incubation in the incubator for 1 h. fluorescence values (excitation at 320 nm, detecting emitted light at 665 nm and 620 nm, and a ratio of the two as an enzyme activity signal) were read on Envision (purchased from PerkinElmer). The enzymatic activity signal of VEGFR2 was measured at 7 concentrations for each compound and the data were calculated using GraphPad Prism software to obtain the IC50 value for the compound.

By IC50 is commonly meant the midpoint of a concentration-inhibition curve. Read a low IC50 as higher potency. The compound `CCn1cc(-c2cc(-c3ccc(N4CC5CC(C4)N5Cc4ccc(S(C)(=O)=O)cc4)nc3)c3c(C#N)cnn3c2)cn1` [Example 44, 6-(1-ethyl-1Hpyrazol-4-yl)-4-(6-(6-(4-(methylsulfonyl)benzyl)-3,6-diazabicyclo[3.1.1]heptan-3-yl)pyridin-3 yl)pyrazolo[1,5-a]pyridine-3-carbonitrile] returned an IC50 on RET^WT of 0.247 nM.
As to `CSc1ccc(CN2C3CC2CN(c2ccc(-c4cc(-c5cnn(C)c5)cn5ncc(C#N)c45)cn2)C3)cn1` [Example 50, 6-(1-methyl-1Hpyrazol-4-yl)-4-(6-(6-((6-(methylthio)pyridin-3-yl)methyl)-3,6-diazabicyclo[3.1.1]heptan-3-yl)pyridin-3-yl)pyrazolo[1,5-a]pyridine-3-carbonitrile], the half-inhibitory concentration (IC50) against RET^WT worked out at 0.181 nM.
`COc1ccc(CN2C3CC2CN(c2ccc(-c4cc(N5CC(OC)C5)cn5ncc(C#N)c45)cn2)C3)cn1` [Example 27, 6-(3-methoxyazetidin-1-yl)-4-(6-(6-((6-methoxypyridin-3-yl)methyl)-3,6-diazabicyclo[3.1.1]heptan-3-yl)pyridin-3-yl)pyrazolo[1,5-a]pyridine-3-carbonitrile]: the IC50 was determined as 0.536 nM against RET^WT and 2.28 nM at VEGFR2.
For `COc1ccc(CN2CCN(c3ccc(-c4cc(N5CCOCC5)cn5ncc(C#N)c45)cn3)CC2)cn1` [Example 19, 6-(morpholino-1-yl)-4-(6-(4-((6-methoxypyridin-3-yl)methyl)piperazin-1-yl)pyridin-3-yl)pyrazolo[1,5-a]pyridine-3-carbonitrile] the same measures were 0.636 nM and 94 nM.
As for `COC/C=C/C(=O)N1C2CC1CN(c1ccc(-c3cc(-c4cnn(C(F)F)c4)cn4ncc(C#N)c34)cn1)C2` [Example 62, (E)-6-(1-(difluoromethyl)-1Hpyrazol-4-yl)-4-(6-(6-(4-methoxybut-2-enoyl)-3,6-diazabicyclo[3.1.1]heptan-3-yl)pyridin-3-yl)pyrazolo[1,5-a]pyridine-3-carbonitrile], the half-inhibitory concentration (IC50) against RET^WT is 1.11 nM.
Same read-out and setting: the result for `CS(=O)(=O)c1ccc(CN2CCN(c3ccc(-c4cc(-c5cnn(C(F)F)c5)cn5ncc(C#N)c45)cn3)CC2)nc1` [Example 80, 6-(1-(difluoromethyl)-1Hpyrazol-4-yl)-4-(6-(4-((5-(methylsulfonyl)pyridin-2-yl)methyl)piperazin-1-yl)pyridin-3-yl) pyrazolo[1,5-a] pyridine-3-carbonitrile] reads 1.58 nM.
Regarding `CSc1cccc(CN2CCN(c3ccc(-c4cc(-c5cnn(C)c5)cn5ncc(C#N)c45)cn3)CC2)n1` [Example 51, 6-(1-methyl-1Hpyrazol-4-yl)-4-(6-(4-((6-(methylthio)pyridin-2-yl)methyl)piperazin-1-yl)pyridin-3-yl)pyrazolo[1,5-a]pyridine-3-carbonitrile], the IC50 at RET^WT was 0.328 nM; against VEGFR2 it was 6.2 nM.
Consider `CSc1ccc(CN2C3CC2CN(c2ccc(-c4cc(-c5cnn(C(F)F)c5)cn5ncc(C#N)c45)cn2)C3)cc1` [Example 82, 6-(1-difluoromethyl-1Hpyrazol-4-yl)-4-(6-(6-(4-(methylthio)benzyl)-3,6-diazabicyclo[3.1.1]heptan-3-yl)pyridin-3-yl)pyrazolo[1,5-a]pyridine-3-carbonitrile], for which the IC50 against RET^WT was found to be 0.136 nM; at VEGFR2, 0.734 nM.
For `CS(=O)(=O)c1ccc(CN2CCN(c3ccc(-c4cc(-c5cnn(C(F)F)c5)cn5ncc(C#N)c45)cn3)CC2)cc1` [Example 49, 6-(1-difluoromethyl-1Hpyrazol-4-yl)-4(6-(4-(4-(methylsulfonyl)benzyl)piperazin-1-yl)pyridin-3-yl)pyrazolo[1,5-a]pyridine-3-carbonitrile] the same measures were 0.94 nM and 18.2 nM.
For the compound `Cn1cc(-c2cc(-c3ccc(N4CC5CCC(C4)N5Cc4ccc(S(C)(=O)=O)cc4)nc3)c3c(C#N)cnn3c2)cn1` [Example 57, 6-(1-methyl-1Hpyrazol-4-yl) 4-(6-(8-(4-(methylsulfonyl)benzyl)-3,8-diazabicyclo[3.2.1]octan-3-yl)pyridin-3-yl)pyrazolo[1,5-a]pyridine-3-carbonitrile], the IC50 on VEGFR2 was 8.94 nM.
In the case of `CSc1ccc(CN2CCN(c3ccc(-c4cc(-c5cnn(C(F)F)c5)cn5ncc(C#N)c45)cn3)CC2)cc1` [Example 81, 4-(6-(4-(4-(methylthio)benzyl)piperazin-1-yl)pyridin-3-yl)-6-(1-(difluoromethyl)-1Hpyrazol-4-yl)pyrazolo[1,5-a]pyridine-3-carbonitrile], the midpoint of inhibition on RET^WT, the IC50, lay at 1.33 nM.
For `CS(=O)(=O)c1ccccc1CN1CCN(c2ccc(-c3cc(-c4cnn(C(F)F)c4)cn4ncc(C#N)c34)cn2)CC1` [Example 48, 6-(1-difluoromethyl-1Hpyrazol-4-yl)-4-(6-(4-(2-(methylsulfonyl)benzyl)piperazin-1-yl)pyridin-3-yl)pyrazolo[1,5-a]pyridine-3-carbonitrile], the IC50 against RET^WT amounted to 0.57 nM; against VEGFR2 it was 10.1 nM.
For `CSc1ccc(CN2C3CC2CN(c2ccc(-c4cc(-c5cnn(C)c5)cn5ncc(C#N)c45)cn2)C3)cc1` [Example 59, 6-(1-methyl-1Hpyrazol-4-yl)-4-(6-(6-(4-(methylthio)benzyl)-3,6-diazabicyclo[3.1.1]heptan-3-yl)pyridin-3-yl)pyrazolo[1,5-a]pyridine-3-carbonitrile] the same measures were 0.066 nM and 0.154 nM.
With `CCSc1ccc(CN2CCN(c3ccc(-c4cc(-c5cnn(C)c5)cn5ncc(C#N)c45)cn3)CC2)cn1` [Example 18, 6-(1-methyl-1Hpyrazol-4-yl)-4(6-(4-((6-(ethylthio)pyridin-3-yl)methyl)piperazin-1-yl)pyridin-3-yl)pyrazolo[1,5-a]pyridine-3-carbonitnile], the IC50 against VEGFR2 is 13 nM.
Consider `CSc1ccc(CN2C3CC2CN(c2ccc(-c4cc(-c5cnn(C(F)F)c5)cn5ncc(C#N)c45)cn2)C3)nc1` [Example 66, 6-(1-(difluoromethyl)-1Hpyrazol-4-yl)-4-(6-(6-((5-(methylthio)pyridin-2-yl)methyl)-3,6-diazabicyclo[3.1.1]heptan-3-yl)pyridin-3-yl)pyrazolo[1,5-a]pyridine-3-carbonitrile], for which the half-inhibitory concentration (IC50) at RET^WT was 0.268 nM; against VEGFR2, 2.94 nM.
For `CS(=O)(=O)c1ccc(CN2CCN(c3ccc(-c4cc(N5CC(C#N)C5)cn5ncc(C#N)c45)cn3)CC2)cc1` [Example 40, 6-(3-cyanoazetidin-1-yl)-4-(6-(4-(4-(methylsulfonyl)benzyl)piperazin-1-yl)pyridin-3-yl)pyrazolo[1,5-α]pyridin-3-carbonitrile], the IC50 against RET^WT turned out to be 1.31 nM.
On the same count and under the same terms, the result for `CS(=O)(=O)c1ccc(CN2CCN(c3ccc(-c4cc(-c5cnn(C(F)F)c5)cn5ncc(C#N)c45)cn3)CC2)cn1` [Example 63, 6-(1-(difluoromethyl)-1Hpyrazol-4-yl)-4-(6-(4-((6-(methylsulfonyl)pyridin-3-yl)methyl)piperazin-1-yl)pyridin-3-yl)pyrazolo[1,5-a]pyridine-3-carbonitrile] reads 2.96 nM; that for `CSc1ccc(CN2CCN(c3ccc(-c4cc(-c5cnn(C(F)F)c5)cn5ncc(C#N)c45)cn3)CC2)cn1` [Example 75, 6-(1-(difluoromethyl)-1Hpyrazol-4-yl)-4-(6-(4-((6-(methylthio)pyridin-3-yl)methyl)piperazin-1-yl)pyridin-3-yl) pyrazolo[1,5-a] pyridine-3-carbonitrile], 0.943 nM; that for `COc1ncc(CN2C3CC2CN(c2ccc(-c4cc(N5CC(C)(O)C5)cn5ncc(C#N)c45)cn2)C3)cn1` [Example 58, 6-(3-hydroxy-3-methylazetidin-1-yl)-4-(6-(6-((2-methoxypyrimidin-5-yl)methyl)-3,6-diazabicyclo[3.1.1]heptan-3-yl)pyridin-3-yl)pyrazolo[1,5-a]pyridine-3-carbonitrile], 1.34 nM.
